From PMC8142021 (International Journal for Parasitology: Drugs and Drug …, 2021)
≈ marks a conversion by molar mass, not a printed value. Entries after “also recorded” stand apart in the source; their conditions may differ.

What was measured:
[1] = ref Vandermeulen et al., 2006; cited from earlier work
[2] = Determination of aqueous solubility; format: physicochemical; details: phosphate buffer, pH 7, aqueous buffer, thermodynamic from solid
[3] = tested on: L. infantum axenic amastigotes; assay: Axenic amastigote assay; format: cell-based, Leishmania infantum
[4] = tested on: L. infantum intracellular amastigotes in U937 macrophages; assay: In vitro macrophage infection and intracellular amastigote assay; format: cell-based, Leishmania infantum; details: infected U937 macrophages, 20 μM

solubility thermodynamic at 72 h [2] [µg/mL] | Compound | activity against intracellular amastigotes (in words) [4] | further results
– | C[C@@H]1[C@H](O)[C@@H](C)/C=C/C=C/C=C/C=C/C=C/C=C/C=C/[C@H](O[C@@H]2O[C@H](C)[C@@H](O)[C@H](N)[C@@H]2O)C[C@@H]2O[C@](O)(C[C@@H](O)C[C@@H](O)[C@H](O)CC[C@@H](O)C[C@@H](O)CC(=O)O[C@H]1C)C[C@H](O)[C@H]2C(=O)O [Amphotericin B] | – | aqueous solubility [1]: 1 µg/mL (≈ 1.08 µM)
55 (≈ 178 µM) | COc1ccc(NS(=O)(=O)c2ccc(N)cc2)cc1OC [Compound 26, 4-Amino-N-(3,4-dimethoxyphenyl)benzenesulfonamide] | – | –
118 (≈ 336 µM) | COc1cc(N)c(NS(=O)(=O)c2ccc(N(C)C)cc2)cc1OC [Compound 35, N-(2-amino-4,5-dimethoxyphenyl)-4-(dimethylamino)benzenesulfonamide] | – | –
1890 (≈ 3110 µM) | COc1ccc(S(=O)(=O)Nc2c(C(=O)Nc3c(C(=O)O)cc(OC)c(OC)c3OC)cc(OC)c(OC)c2OC)cc1 [Compound 63B, 3,4,5-trimethoxy-2-(3,4,5-trimethoxy-2-((4-methoxyphenyl)sulfonamido)benzamido)benzoic acid] | – | –
– | COc1ccc(S(=O)(=O)Nc2cc(OC)c(NC(=O)CCl)cc2OC)cc1 [Compound 129, 2-Chloro-N-(2,5-dimethoxy-4-((4-methoxyphenyl)sulfonamido)phenyl)acetamide] | active; also recorded: infection clearly interrupted | Leishmania infantum Axenic amastigotes IC50 (μM) ([3]; 48 h treatment, XTT): sub-micromolar
– | COc1ccc(S(=O)(=O)Nc2cc(C#N)ccc2OS(=O)(=O)c2ccc(OC)cc2)cc1 [Compound 276B, 4-cyano-2-((4-methoxyphenyl)sulfonamido)phenyl 4-methoxybenzenesulfonate] | active | Selectivity index Axenic amastigotes ([3]; IC50 cellular cytotoxicity (HeLa)/IC50 antileishmanial activity): 11.5
– | COc1ccc(S(=O)(=O)N(Cc2ccccc2)c2ccc(OC)nc2)cc1 [Compound 279, N-benzyl-4-methoxy-N-(6-methoxypyridin-3-yl)benzenesulfonamide] | inactive | –
